Measurements: US20080227128A1, “Resonance Energy Transfer System and Method” (Mount Sinai School of Medicine of New York University, priority 2004, published 2008)

Tested on: PKA-Ala construct
Experiment: BRET assay, PKA-Ala construct
Format: cell-based, Human

Nc1ncnc2c1ncn2[C@@H]1O[C@@H]2COP(O)(=S)O[C@H]2[C@H]1O (single isomer, unassigned) [Sp-cAMPs, Adenosine-3′,5′-cyclic monophosphorothioate, Sp-isomer]
effect on BRET ratio, serine mutated to alanine: has no effect
